# Test results taken from the supplement of paper PMC10307832.
# How the values were obtained:
# Experiment in all cases: relative viability (nuclei count vs DMSO), 5 days (fraction); higher = more cells survive
# Sorafenib + Lapatinib = compound: CNC(=O)c1cc(Oc2ccc(NC(=O)Nc3ccc(Cl)c(C(F)(F)F)c3)cc2)ccn1 [Sorafenib] + CS(=O)(=O)CCNCc1ccc(-c2ccc3ncnc(Nc4ccc(OCc5cccc(F)c5)c(Cl)c4)c3c2)o1 [Lapatinib] (partner 2 µM)
# In short: (§1)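 One day after seeding in 1536-well plates, lung cancer cell lines were dosed by pin tool. Dosing was either single-drug or a fixed anchor-drug dose plus five library-drug doses (not always all listed) in √10 steps. After 5 days, nuclei were stained in one fix-and-stain step and counted on 4× images, and relative viability is the nuclei count of treated wells over that of vehicle wells, given as the median of duplicate plates.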
# Sorafenib + Dasatinib = compound: CNC(=O)c1cc(Oc2ccc(NC(=O)Nc3ccc(Cl)c(C(F)(F)F)c3)cc2)ccn1 [Sorafenib] + Cc1nc(Nc2ncc(C(=O)Nc3c(C)cccc3Cl)s2)cc(N2CCN(CCO)CC2)n1 [Dasatinib] (partner 0.075 µM)
# In short: as §1
# Sorafenib + Decitabine = compound: CNC(=O)c1cc(Oc2ccc(NC(=O)Nc3ccc(Cl)c(C(F)(F)F)c3)cc2)ccn1 [Sorafenib] + Nc1ncn([C@H]2C[C@H](O)[C@@H](CO)O2)c(=O)n1 [Decitabine] (partner 2 µM)
# In short: as §1
# Sorafenib + Vorinostat = compound: CNC(=O)c1cc(Oc2ccc(NC(=O)Nc3ccc(Cl)c(C(F)(F)F)c3)cc2)ccn1 [Sorafenib] + O=C(CCCCCCC(=O)Nc1ccccc1)NO [Vorinostat] (partner 1 µM)
# In short: as §1
# Sorafenib + Olaparib = compound: CNC(=O)c1cc(Oc2ccc(NC(=O)Nc3ccc(Cl)c(C(F)(F)F)c3)cc2)ccn1 [Sorafenib] + O=C(c1cc(Cc2n[nH]c(=O)c3ccccc23)ccc1F)N1CCN(C(=O)C2CC2)CC1 [Olaparib] (partner 8 µM)
# In short: as §1
Cell Line,relative viability (Sorafenib + Lapatinib; first compound 0.08 µM),relative viability (Sorafenib + Lapatinib; first compound 0.253 µM),relative viability (Sorafenib + Lapatinib; first compound 2.53 µM),relative viability (Sorafenib + Lapatinib; first compound 8 µM),relative viability (Sorafenib + Dasatinib; first compound 0.08 µM),relative viability (Sorafenib + Dasatinib; first compound 0.253 µM),relative viability (Sorafenib + Dasatinib; first compound 2.53 µM),relative viability (Sorafenib + Dasatinib; first compound 8 µM),relative viability (Sorafenib + Decitabine; first compound 0.08 µM),relative viability (Sorafenib + Decitabine; first compound 0.253 µM),relative viability (Sorafenib + Decitabine; first compound 2.53 µM),relative viability (Sorafenib + Decitabine; first compound 8 µM),relative viability (Sorafenib + Vorinostat; first compound 0.08 µM),relative viability (Sorafenib + Vorinostat; first compound 0.253 µM),relative viability (Sorafenib + Vorinostat; first compound 2.53 µM),relative viability (Sorafenib + Vorinostat; first compound 8 µM),relative viability (Sorafenib + Olaparib; first compound 0.08 µM),relative viability (Sorafenib + Olaparib; first compound 0.253 µM),relative viability (Sorafenib + Olaparib; first compound 8 µM),relative viability (Sorafenib + Olaparib; first compound 2.53 µM)
RERF-LC-KJ,0.917,0.782,0.838,0.778,0.967,0.668,0.77,0.401,0.74,0.673,0.586,0.473,0.723,0.608,0.738,0.665,0.979,0.784,0.297,–
SK-LU-1,0.914,0.735,0.774,0.373,0.197,0.184,0.196,0.185,0.605,0.564,0.578,0.396,0.824,–,0.719,0.455,0.534,0.361,0.317,0.549
SK-MES-1,0.468,0.465,0.56,0.515,0.434,0.276,0.41,0.273,0.365,0.326,0.322,0.338,1.15,0.914,–,0.842,0.664,0.551,0.258,0.648
SW 1573,1.18,0.978,1.12,0.963,0.752,0.38,0.505,0.213,0.57,0.511,0.408,0.182,0.662,0.618,0.366,0.425,0.47,0.518,0.132,0.437
UMC-11,1.08,0.874,1.07,0.468,0.509,0.396,0.357,0.205,0.596,0.57,0.535,0.249,0.395,0.422,0.379,0.36,0.39,0.375,0.15,0.38
